In patent US11124785B2, “Rothia subtilisins, S8A family proteases, as therapeutic enzymes for application in gluten intolerance disorders” (TRUSTEES OF BOSTON UNIVERSITY, priority 2016, dated 2021):

Columns and labels:
Format in all cases: biochemical
Z-PFP-pNA = assay: Hydrolysis of paranitroanilide-derivatized substrate Z-PFP-pNA; conditions: substrate 200 μM, pH 8.0 (data not shown)
Procedure: (§1) Hydrolysis of paranitroanilide-derivatized substrates—Paranitroanilide (pNA)-derivatized tripeptide substrates were chemically synthesized at >90% purity (21st Century Biochemicals, Marlborough, Mass.). The substrates obtained were Z-YPQ-pNA, Z-QQP-pNA, Z-LPY-pNA, Z-PFP-pNA, Z-PPF-pNA, where Z=benzyloxycarbonyl, Y=tyrosine, P=proline, Q=glutamine, L=leucine, and F=phenylalanine Suc-AAPF-pNA (SEQ ID NO: 4) was obtained from Sigma, where Suc=N-succinyl and A=alanine. The peptides were dissolved in 75-100% DMSO at 10 mM, and were used at a final concentration of 200 μM in 50 mM TrisHCl pH 8.0. Purified Rothia enzyme or subtilisin A from Bacillus licheniformis (Sigma) were tested at final concentrations of 1 μg/ml. Some experiments were conducted in the presence of inhibitors 4-(2-Aminoethyl) benzenesulfonyl fluoride (AEBSF), Aprotinin, E-64, EDTA, phenylmethanesulfonyl fluoride (PMSF) and Eglin C, which were tested at final concentrations of 10 mM, 0.08 mM, 0.1 mM, 1.5 mM, 1 mM, and 0.06-1.2 μM, respectively. Enzymes were preincubated with the inhibitors for 20 min before adding Suc-AAPF-pNA (SEQ ID NO: 4). Substrate hydrolysis was monitored for 10 h at 405 nm using a Genios microtiter plate reader (Tecan, Männedorf, Switzerland) in the kinetic mode at 37° C.

Z-PPF-pNA = assay: Hydrolysis of paranitroanilide-derivatized substrate Z-PPF-pNA; conditions: fifty-fold increased enzyme concentrations (data not shown)
Procedure: as §1

FRET substrate PQPQPQ = assay: FRET substrate hydrolysis, PQPQPQ; conditions: substrate 100 μM, Rmep 1 μg/ml, subtilisin A 0.5 μg/ml, pH 8.0
Procedure: FIG. 4D and FIG. 4E are representative graphs of the hydrolysis of gliadin-derived FRET substrates. FRET substrates containing QPQLPY (SEQ ID NO: 22), PQPQPQ (SEQ ID NO: 23) and QGSFQP (SEQ ID NO: 24), each at 100 μM, were incubated with Rmep […] and subtilisin A (FIG. 4E), at 1 μg/ml and 0.5 μg/ml, respectively. Controls were boiled Rmep and subtilisin A incubated with PQPQLPY (+) (SEQ ID NO: 25), PQPQPQ (⋄) (SEQ ID NO: 23) and QGSFQP (*) (SEQ ID NO: 24) (no activity, baseline).
FRET substrate hydrolysis—Three fluorescence resonance energy transfer (FRET) substrates comprising the hexapeptides QPQLPY (SEQ ID NO: 22), PQPQPQ (SEQ ID NO: 23) and QGSFQP (SEQ ID NO: 24) were synthesized with at the N-terminus the HILYTE FLUOR™ 488 label, and at the C-terminus with K(QXL520) (Anaspec, Fremont, Calif.). Rmep (1 μg/ml) and subtilisin A (0.5 μg/ml) were incubated with the substrates (100 μM) in 50 mM TrisHCl pH 8.0. Samples were incubated at 37° C. and fluorescence increase, indicating hydrolysis, was measured every 5 min for 30 min, and every 10 min for the next 30 min, at λex 485 nm and λem 520 nm, using a Genios microtiter plate reader in the kinetic mode.

[1] = system: α-gliadin derived 33-mer peptide; assay: Degradation of the 33-mer peptide (RP-HPLC); conditions: 33-mer 250 μg/ml, enzyme 57 μg/ml
Procedure: FIG. 8D is a representative chromatogram of the RP-HPLC analysis of the degradation of the gliadin-derived 33-mer (250 μg/ml) incubated for 0, 15, 30 and 120 min with NattoK 57 μg/ml).
Degradation of mixed gliadins and the 33-mer peptide—Mixed gliadins were obtained from Sigma. A synthetic highly immunogenic α-gliadin derived 33-mer peptide (26) was synthesized at a purity of >90% (21st Century Biochemicals). Mixed gliadins or the 33-mer peptide (each at final concentration 250 μg/ml) were incubated with Rmep or subtilisin A (each at 57 μg/ml) in 50 mM TrisHCl, pH 8.0. After t=0, 15 min, 30 min, and 2 h, 100 μl sample aliquots were removed and boiled. Gliadin degradation was assessed by 4-12% SDS-PAGE followed by Coomassie staining, and 33-mer degradation was determined by RP-HPLC.
Reversed-phase high performance liquid chromatography (RP-HPLC)—Separation of the 33-mer peptide and its fragments was achieved by RP-HPLC, using buffer A (0.1% trifluoroacetic acid) and buffer B (0.1% trifluoroacetic acid in 80% acetonitrile) at a gradient of 0-55% buffer B over 75 min time interval. The equipment used was an HPLC Model 715 (Gilson, Middleton, Wis.) and a C-18 column (TSK-GEL […], ODS-120T, TOSOHaas, Montgomeryville, Pa.) (22, 25).

[2] = system: R5 epitopes (QQPFP and related pentapeptides) in mixed gliadins; assay: R5 ELISA, gluten epitope elimination in gliadin digests; conditions: gliadins 250 μg/ml, enzyme 57 μg/ml
Procedure: FIG. 8E and FIG. 8F show the assessment of the survival of epitopes in the gliadin-NattoK degradation mixture employing the R5 ELISA (FIG. 8E) or G12 ELISA (FIG. 8F) assays. Epitope abolishment in Mixed gliadins (250 μg/ml) were incubated with NattoK (57 μg/ml) for 0, 15, 30 and 120 min and then assayed by the R5 ELISA or G12 ELISA.
R5 and G12 ELISA assays—Gluten epitope elimination in the gliadin-Rmep and gliadin-subtilisin A digests was assessed using two sandwich ELISA assays employing the R5 monoclonal antibody (RIDASCREEN Gliadin, R-Biopharm, Darmstadt, Germany) or the G12 monoclonal antibody (AgraQuant® ELISA Gluten G12, Romer labs, Union, Mo.). To prevent high background values, the R5 plate wells were blocked with 1% skim milk in PBS prior to incubation with the samples. The assays were performed according to the manufacturers' instructions and as described (21, 24).
To further investigate this, the time courses of degradation of mixed gliadins and the highly immunogenic 33-mer α-gliadin peptide were determined. Furthermore, epitope elimination was monitored by two ELISA assays employing the R5 antibody recognizing QQPFP (SEQ ID NO: 40) and related pentapeptides (27, 28) and the G12 antibody recognizing QPQLPY (SEQ ID NO: 22) contained in the 33-mer peptide (29, 30). Data obtained with Rmep are shown in FIG. 5, and with subtilisin A in FIG. 6.

Row | R5 epitope elimination (reduction in antibody binding) at t=0 [2] [%] | Molecule | hydrolysis of Z-PFP-pNA (Z-PFP-pNA) | hydrolysis of Z-PPF-pNA (Z-PPF-pNA) | hydrolysis of FRET substrate PQPQPQ (FRET substrate PQPQPQ) | incubation time within which 33-mer peptide degradation was completed ([1]; pH 8.0) [min] | R5 epitopes eliminated after 15 min ([2]; 15 min) | 33-mer peptide degradation after 2 h of incubation ([1]; 2 h) [%] | R5 epitope elimination within 15 min of incubation ([2]; 15 min) [%]
1 | 46 | Rmep: DEAE pooled fraction F2 of R. mucilaginosa ATCC 25296 extract with highest gluten-degrading enzyme activity; contains subtilisins C6R5V9_9MICC and C6R5W1_9MICC | not hydrolyzed | not | rapidly hydrolyzed | ≤ 30 | virtually all | – | –
2 | 90 | subtilisin A: subtilisin A from Bacillus licheniformis (Sigma) (protein, listed as Bacillus licheniformis) MMRKKSFWLGMLTAFMLVFTMAFSDSASAAQPAKNVEKDYIVGFKSGVKTASVKKDIIKESGGKVDKQFRIINAAKAKLDKEALKEVKNDPDVAYVEEDHVAHALAQTVPYGIPLIKADKVQAQGFKGANVKVAVLDTGIQASHPDLNVVGGASFVAGEAYNTDGNGHGTHVAGTVAALDNTTGVLGVAPSVSLYAVKVLNSSGSGTYSGIVSGIEWATTNGMDVINMSLGGPSGSTAMKQAVDNAYARGVVVVAAAGNSGSSGNTNTIGYPAKYDSVIAVGAVDSNSNRASFSSVGAELEVMAPGAGVYSTYPTSTYATLNGTSMASPHVAGAAALILSKHPNLSASQVRNRLSSTATYLGSSFYYGKGLINVEAAAQ | not hydrolyzed | hydrolyzed | highest activity | – | – | 74 | 100
